Reference: patent publication US20070128217A1 (priority 2003, published 2007)

What was measured:
[1] = tested on: antibodies in sera from SARS patients (sera 1a, 1b, 2, 6, 37, 62, London, SARS-yellow, SARS-green); format: binding, human; parameters: Binding of serum 6 to linear peptides of protein X1 of SARS-CoV Urbani / Binding of serum 37 to linear peptides of protein X1 of SARS-CoV Urbani / Binding of serum 6 to looped/cyclic peptide (PEPSCAN-ELISA) / Binding of serum 37 to looped/cyclic peptide (PEPSCAN-ELISA) / Binding of serum 37 to looped/cyclic peptides of protein X1 of SARS-CoV Urbani / Binding of serum 6 to linear peptides of protein X2 / Binding of serum 37 to linear peptides of protein X2 / Binding of serum 37 to looped/cyclic peptides of protein X2 of SARS-CoV Urbani / Binding of serum 6 to linear peptides of protein M of SARS-CoV Urbani / Binding of serum 37 to linear peptides of protein M of SARS-CoV Urbani / Binding of serum 6 to looped/cyclic peptides of protein M of SARS-CoV Urbani / Binding of serum 37 to looped/cyclic peptides of protein M of SARS-CoV Urbani / Binding of serum 6 to linear peptides of protein X3 of SARS-CoV Urbani / Binding of serum 37 to linear peptides of protein X3 of SARS-CoV Urbani / Binding of serum 37 to looped/cyclic peptides of protein X3 of SARS-CoV Urbani / Binding of serum 6 to linear peptides of protein X4 of SARS-CoV Urbani / Binding of serum 37 to linear peptides of protein X4 of SARS-CoV Urbani / Binding of serum 37 to looped/cyclic peptides of protein X4 of SARS-CoV Urbani / Binding of serum 6 to linear peptides of protein X5 of SARS-CoV Urbani / Binding of serum 37 to linear peptides of protein X5 of SARS-CoV Urbani / Binding of serum 37 to looped/cyclic peptides of protein X5 of SARS-CoV Urbani / Binding of serum 6 to linear peptides of protein N of SARS-CoV Urbani / Binding of serum 37 to linear peptides of protein N of SARS-CoV Urbani / Binding of serum 6 to linear peptide (PEPSCAN-ELISA) / Binding of serum 1a to looped/cyclic peptides of protein N of SARS-CoV Urbani / Binding of serum 1b to looped/cyclic peptides of protein N of SARS-CoV Urbani / Binding of serum 2 to looped/cyclic peptides of protein N of SARS-CoV Urbani / Binding of serum 6 to looped/cyclic peptides of protein N of SARS-CoV Urbani / Binding of serum 37 to looped/cyclic peptides of protein N of SARS-CoV Urbani / Binding of serum 62 to looped/cyclic peptides of protein N of SARS-CoV Urbani / Binding of serum London to looped/cyclic peptides of protein N of SARS-CoV Urbani / Binding of serum SARS-green to looped/cyclic peptides of protein N of SARS-CoV Urbani: unit not given here
[2] = tested on: control sera (pooled serum of ten healthy LUMC hospital workers; commercial negative donor pooled serum from the Dutch bloodbank); format: binding, human
[3] = tested on: rabbit serum obtained by immunizing a rabbit with the SARS-CoV strain Frankfurt 1; format: binding; parameters: Binding of a rabbit serum to linear peptides / Binding of a rabbit serum to looped peptides / Rabbit serum linear peptides / Rabbit serum looped peptides / Binding of a rabbit serum to linear peptides of protein N of SARS-CoV Urbani (Rabbit serum linear peptides) / Binding of a rabbit serum to looped/cyclic peptides of protein N of SARS-CoV Urbani (Rabbit serum looped peptides): unit not given here

AFVVFLLVTLAILTA
Binding of serum 1a to linear peptides of protein E of SARS-CoV Urbani [1]: 0.8
Binding of serum 1a to looped/cyclic peptides of protein E of SARS-CoV Urbani [1]: 0.5
Binding of serum 1b to linear peptides of protein E of SARS-CoV Urbani [1]: 0.6
Binding of serum 1b to looped/cyclic peptides of protein E of SARS-CoV Urbani [1]: 0.4
Binding of serum 2 to linear peptides of protein E of SARS-CoV Urbani [1]: 0.4
Binding of serum 2 to looped/cyclic peptides of protein E of SARS-CoV Urbani [1]: 0.4
Binding of serum 6 to linear peptides of protein E of SARS-CoV Urbani [1]: 0.6
Binding of serum 6 to looped/cyclic peptides of protein E of SARS-CoV Urbani [1]: 0.5
Binding of serum 37 to linear peptides of protein E of SARS-CoV Urbani [1]: 0.7
Binding of serum 37 to looped/cyclic peptides of protein E of SARS-CoV Urbani [1]: 0.5
Binding of serum 62 to linear peptides of protein E of SARS-CoV Urbani [1]: 0.7
Binding of serum 62 to looped/cyclic peptides of protein E of SARS-CoV Urbani [1]: 0.6
Binding of serum London to linear peptides of protein E of SARS-CoV Urbani [1]: 0.6
Binding of serum London to looped/cyclic peptides of protein E of SARS-CoV Urbani [1]: 0.4
Binding of serum SARS-green to linear peptides of protein E of SARS-CoV Urbani [1]: 0.4
Binding of serum SARS-green to looped/cyclic peptides of protein E of SARS-CoV Urbani [1]: 0.5
Binding of serum SARS-yellow to linear peptides of protein E of SARS-CoV Urbani [1]: 0.2
Binding of serum SARS-yellow to looped/cyclic peptides of protein E of SARS-CoV Urbani [1]: 0.5
Binding of Control Serum Blood-Bank to Looped peptides [2]: 0.8
Binding of Control serum Blood-bank to linear peptides [2]: 0.5
Binding of Control serum LUMC to linear peptides [2]: 0.4
Binding of Control serum LUMC to looped peptides [2]: 0.5
Binding of a rabbit serum to linear peptides [3]: 0.7
Binding of a rabbit serum to looped peptides [3]: 0.1

AIWNLDVIISSIVRQ
Binding of serum 1a to linear peptides of protein X3 of SARS-CoV Urbani [1]: 0.8
Binding of serum 1a to looped/cyclic peptides of protein X3 of SARS-CoV Urbani [1]: 0.5
Binding of serum 1b to linear peptides of protein X3 of SARS-CoV Urbani [1]: 0.4
Binding of serum 1b to looped/cyclic peptides of protein X3 of SARS-CoV Urbani [1]: 0.5
Binding of serum 2 to linear peptides of protein X3 of SARS-CoV Urbani [1]: 0.6
Binding of serum 2 to looped/cyclic peptides of protein X3 of SARS-CoV Urbani [1]: 0.4
Binding of serum 6 to linear peptides of protein X3 of SARS-CoV Urbani [1]: 0.5
Binding of serum 6 to looped/cyclic peptides of protein X3 of SARS-CoV Urbani [1]: 0.4
Binding of serum 37 to linear peptides of protein X3 of SARS-CoV Urbani [1]: 0.6
Binding of serum 37 to looped/cyclic peptides of protein X3 of SARS-CoV Urbani [1]: 0.6
Binding of serum 62 to linear peptides of protein X3 of SARS-CoV Urbani [1]: 0.6
Binding of serum 62 to looped/cyclic peptides of protein X3 of SARS-CoV Urbani [1]: 0.5
Binding of serum London to linear peptides of protein X3 of SARS-CoV Urbani [1]: 0.6
Binding of serum London to looped/cyclic peptides of protein X3 of SARS-CoV Urbani [1]: 0.2
Binding of serum SARS-green to linear peptides of protein X3 of SARS-CoV Urbani [1]: 0.3
Binding of serum SARS-green to looped/cyclic peptides of protein X3 of SARS-CoV Urbani [1]: 0.4
Binding of serum SARS-yellow to linear peptides of protein X3 of SARS-CoV Urbani [1]: 0.3
Binding of serum SARS-yellow to looped/cyclic peptides of protein X3 of SARS-CoV Urbani [1]: 0.6
Binding of Control Serum Blood-Bank to Looped peptides of the protein X3 of SARS-CoV Urbani [2]: 0.8
Binding of Control serum Blood-bank to linear peptides of the protein X3 of SARS-CoV Urbani [2]: 0.7
Binding of Control serum LUMC to linear peptides of the protein X3 of SARS-CoV Urbani [2]: 0.7
Binding of Control serum LUMC to looped peptides of the protein X3 of SARS-CoV Urbani [2]: 0.7
Rabbit serum linear peptides [3]: 0.3
Rabbit serum looped peptides [3]: 0.4

ALRLCAYCCNIVNVS
Binding of serum 1a to linear peptides of protein E of SARS-CoV Urbani [1]: 0.9
Binding of serum 1a to looped/cyclic peptides of protein E of SARS-CoV Urbani [1]: 0.8
Binding of serum 1b to linear peptides of protein E of SARS-CoV Urbani [1]: 0.8
Binding of serum 1b to looped/cyclic peptides of protein E of SARS-CoV Urbani [1]: 0.8
Binding of serum 2 to linear peptides of protein E of SARS-CoV Urbani [1]: 0.5
Binding of serum 2 to looped/cyclic peptides of protein E of SARS-CoV Urbani [1]: 0.7
Binding of serum 6 to linear peptides of protein E of SARS-CoV Urbani [1]: 0.7
Binding of serum 6 to looped/cyclic peptides of protein E of SARS-CoV Urbani [1]: 0.7
Binding of serum 37 to linear peptides of protein E of SARS-CoV Urbani [1]: 0.8
Binding of serum 37 to looped/cyclic peptides of protein E of SARS-CoV Urbani [1]: 0.7
Binding of serum 62 to linear peptides of protein E of SARS-CoV Urbani [1]: 0.7
Binding of serum 62 to looped/cyclic peptides of protein E of SARS-CoV Urbani [1]: 0.8
Binding of serum London to linear peptides of protein E of SARS-CoV Urbani [1]: 0.5
Binding of serum London to looped/cyclic peptides of protein E of SARS-CoV Urbani [1]: 0.6
Binding of serum SARS-green to linear peptides of protein E of SARS-CoV Urbani [1]: 0.5
Binding of serum SARS-green to looped/cyclic peptides of protein E of SARS-CoV Urbani [1]: 0.6
Binding of serum SARS-yellow to linear peptides of protein E of SARS-CoV Urbani [1]: 0.2
Binding of serum SARS-yellow to looped/cyclic peptides of protein E of SARS-CoV Urbani [1]: 0.7
Binding of Control Serum Blood-Bank to Looped peptides [2]: 1.1
Binding of Control serum Blood-bank to linear peptides [2]: 0.8
Binding of Control serum LUMC to linear peptides [2]: 0.5
Binding of Control serum LUMC to looped peptides [2]: 0.8
Binding of a rabbit serum to linear peptides [3]: 0.7
Binding of a rabbit serum to looped peptides [3]: 0.4

EETGTLIVNSVLLFL
Binding of serum 1a to linear peptides of protein E of SARS-CoV Urbani [1]: 0.8
Binding of serum 1a to looped/cyclic peptides of protein E of SARS-CoV Urbani [1]: 0.4
Binding of serum 1b to linear peptides of protein E of SARS-CoV Urbani [1]: 0.7
Binding of serum 1b to looped/cyclic peptides of protein E of SARS-CoV Urbani [1]: 0.3
Binding of serum 2 to linear peptides of protein E of SARS-CoV Urbani [1]: 0.4
Binding of serum 2 to looped/cyclic peptides of protein E of SARS-CoV Urbani [1]: 0.3
Binding of serum 6 to linear peptides of protein E of SARS-CoV Urbani [1]: 0.6
Binding of serum 6 to looped/cyclic peptides of protein E of SARS-CoV Urbani [1]: 0.4
Binding of serum 37 to linear peptides of protein E of SARS-CoV Urbani [1]: 0.8
Binding of serum 37 to looped/cyclic peptides of protein E of SARS-CoV Urbani [1]: 0.4
Binding of serum 62 to linear peptides of protein E of SARS-CoV Urbani [1]: 0.7
Binding of serum 62 to looped/cyclic peptides of protein E of SARS-CoV Urbani [1]: 0.7
Binding of serum London to linear peptides of protein E of SARS-CoV Urbani [1]: 0.5
Binding of serum London to looped/cyclic peptides of protein E of SARS-CoV Urbani [1]: 0.4
Binding of serum SARS-green to linear peptides of protein E of SARS-CoV Urbani [1]: 0.5
Binding of serum SARS-green to looped/cyclic peptides of protein E of SARS-CoV Urbani [1]: 0.3
Binding of serum SARS-yellow to linear peptides of protein E of SARS-CoV Urbani [1]: 0.2
Binding of serum SARS-yellow to looped/cyclic peptides of protein E of SARS-CoV Urbani [1]: 0.5
Binding of Control Serum Blood-Bank to Looped peptides [2]: 0.6
Binding of Control serum Blood-bank to linear peptides [2]: 0.7
Binding of Control serum LUMC to linear peptides [2]: 0.6
Binding of Control serum LUMC to looped peptides [2]: 0.4
Binding of a rabbit serum to linear peptides [3]: 0.5
Binding of a rabbit serum to looped peptides [3]: 0.0

FLLVTLAILTALRLC
Binding of serum 1a to linear peptides of protein E of SARS-CoV Urbani [1]: 0.6
Binding of serum 1a to looped/cyclic peptides of protein E of SARS-CoV Urbani [1]: 0.3
Binding of serum 1b to linear peptides of protein E of SARS-CoV Urbani [1]: 0.5
Binding of serum 1b to looped/cyclic peptides of protein E of SARS-CoV Urbani [1]: 0.0
Binding of serum 2 to linear peptides of protein E of SARS-CoV Urbani [1]: 0.6
Binding of serum 2 to looped/cyclic peptides of protein E of SARS-CoV Urbani [1]: 0.5
Binding of serum 6 to linear peptides of protein E of SARS-CoV Urbani [1]: 0.3
Binding of serum 6 to looped/cyclic peptides of protein E of SARS-CoV Urbani [1]: 1
Binding of serum 37 to linear peptides of protein E of SARS-CoV Urbani [1]: 0.3
Binding of serum 37 to looped/cyclic peptides of protein E of SARS-CoV Urbani [1]: 0.6
Binding of serum 62 to linear peptides of protein E of SARS-CoV Urbani [1]: 0.3
Binding of serum 62 to looped/cyclic peptides of protein E of SARS-CoV Urbani [1]: 0.6
Binding of serum London to linear peptides of protein E of SARS-CoV Urbani [1]: 0.6
Binding of serum London to looped/cyclic peptides of protein E of SARS-CoV Urbani [1]: 1.2
Binding of serum SARS-green to linear peptides of protein E of SARS-CoV Urbani [1]: 0.5
Binding of serum SARS-green to looped/cyclic peptides of protein E of SARS-CoV Urbani [1]: 0.3
Binding of serum SARS-yellow to linear peptides of protein E of SARS-CoV Urbani [1]: 0.2
Binding of serum SARS-yellow to looped/cyclic peptides of protein E of SARS-CoV Urbani [1]: 0.5
Binding of Control Serum Blood-Bank to Looped peptides [2]: 0.5
Binding of Control serum Blood-bank to linear peptides [2]: 0.6
Binding of Control serum LUMC to linear peptides [2]: 0.5
Binding of Control serum LUMC to looped peptides [2]: 0.1
Binding of a rabbit serum to linear peptides [3]: 0.1
Binding of a rabbit serum to looped peptides [3]: 0.0
